# Source: PMC7255010, “Small-molecule activating SIRT6 elicits therapeutic effects and synergistically promotes anti-tumor activity of vitamin D3 in colorectal cancer” (Theranostics, 2020)
# Columns and labels:
# HCT116 xenograft tumors [1] = assay: Combination treatment in the HCT116 CDX model; format: in vivo, BALB/c nude mice; details: 15 mg/kg MDL-811 plus 50 μg/kg 1,25(OH)2D3 intraperitoneally every other day for 14 days, vs vehicle or single drug
# [2] = test system: PDX tumors from CRC patients #1 and #2; assay: CRC PDX models; format: in vivo, nude mice; details: 30 mg/kg intraperitoneally every other day for 12 days, two PDX models
# Experimental: (§1) All animal studies were performed following federal and institutional guidelines approved by the Institutional Animal Care and Use Committee at Shanghai Jiao-Tong University School of Medicine. To establish the CDXs, HCT116 cells (1 × 10^6) suspended in 100 μL of 1× PBS were injected subcutaneously into the flanks of six-week-old male BALB/c nude mice. To establish the PDXs, primary tumors resected from two independent CRC patients (patient #1 and #2) were collected in the culture medium. The necrotic and supporting tissues were carefully removed using sterilized surgical blades. The gross tumor was cut into fragments (2-3 mm in diameter) and inoculated subcutaneously into the flanks of nude mice. The mice were monitored daily, and caliper measurements began when tumors became visible. The tumor volume was monitored every other day via calipers. The tumor volume was calculated using the following formula: (L × W ^2) / 2, where L and W refer to the tumor diameter along the longitudinal and transverse axes, respectively. When the mean tumor volume was approximately 100 to 250 mm^3, the mice were randomly grouped (n = 6 per group for CDXs, n = 8 per group for PDXs), and treatment was initiated. […] After treatment or if meeting the humane endpoint criteria, the mice were sacrificed by CO2 asphyxiation. The tumors were dissected, imaged, and weighed. […]
# SIRT6 [3] = molecular target: T1, SIRT6 (Homo sapiens, UniProt Q8N6T7); assay: FDL assay of SIRT6 deacylase activity (EALPKK-Myr-AMC); format: biochemical; set-up: WT (wild-type) full-length human SIRT6 was inserted into the pET28a-LIC vector; made in house; host or cells: Escherichia coli BL21 (DE3); details: myristoyl peptide EALPKK-Myr-AMC
# Experimental: According to previously described methods, WT (wild-type) full-length human SIRT6 was inserted into the pET28a-LIC vector (Addgene plasmid #26094). The plasmid was transformed into Escherichia coli BL21 (DE3) cells. Protein was purified using a nickel column and gel filtration. Purified protein was dialyzed into assay buffer (50 mM Tris-HCl [pH 8.0], 137 mM NaCl, 2.7 mM KCl, and 1 mM MgCl2) and used in all in vitro assays performed in this study.
# […], 5 μM WT SIRT6 was incubated in a 50-μL reaction mixture (2.5 mM NAD^+, […], compounds/DMSO, and assay buffer) at 37 °C for 2 h, quenched with 40 mM nicotinamide, and developed with 6 mg/mL trypsin for another 30 min at 25 °C. […] Fluorescence intensity was measured using a microplate reader (Synergy H4 Hybrid Reader, BioTek) at excitation and emission wavelengths of 360 nm and 460 nm, respectively. EC50 values were calculated by fitting the data points with the dose-response function in GraphPad Prism V7 (GraphPad Software). Each experiment was independently repeated three times in technical triplicates.
# HCT116 xenograft tumors [4] = assay: HCT116 CDX model; format: in vivo, BALB/c nude mice; details: 20 or 30 mg/kg intraperitoneally every other day for 16 days
# Experimental: as §1
# SIRT6 [5] = molecular target: T1, SIRT6; assay: SIRT6 deacetylation on nucleosome substrates (western blot); format: biochemical; set-up: WT (wild-type) full-length human SIRT6 was inserted into the pET28a-LIC vector; made in house; host or cells: Escherichia coli BL21 (DE3); details: natural nucleosomes, dose-dependent
# Experimental: In vitro deacetylation reactions on nucleosome substrates were performed as previously reported, [32]. Briefly, 5 μg of mononucleosomes purified from HeLa cells with a nucleosome preparation kit (Active Motif) and 0.2 μg of purified WT SIRT6 were incubated in 40 μL of HDAC buffer (50 mM Tris-HCl [pH 8.0], 2 mM NAD^+, and 150 mM NaCl) for 80 min at 30 °C. […] The reaction mixture was analyzed by western blotting.
# CYP24A1 = assay: RT-qPCR of CYP24A1 mRNA in CRC cells; format: cell-based, human
# Experimental: Total RNA was extracted with TRIzol reagent (Invitrogen) according to the manufacturer's instructions. For cDNA synthesis, 1 μg of total RNA was reverse transcribed using a FastKing RT Kit (Tiangen). RT-qPCRs were run in triplicate using SYBR Green master mix (Roche) in an ABI 7900 Thermal Cycler (Applied Biosystems) according to the manufacturer's instructions. RT-qPCRs were performed in triplicate, and the mean cycle threshold (Ct) values were calculated for expression analysis. The mRNA levels of target genes were calculated using the 2^-ΔΔCt method. The expression data were normalized to β-actin expression levels and are presented as the mean ± s.e.m. of three independent experiments.
# LOVO = assay: Cell proliferation, CCK-8; format: cell-based; details: Homo sapiens, CCK8, 48 h
# Experimental: (§2) Cell proliferation was evaluated using a Cell Counting Kit-8 (CCK-8) (Dojindo) following the manufacturer's instructions. Briefly, CRC cells were plated in 96-well plates at a density of 5 × 10^3 cells per well. […] Cells treated with DMSO were used as the […] controls, and the final DMSO concentration in the medium was 0.1%. After 48 h of treatment, 10 μL of CCK-8 solution was added to every well and incubated for 1 h at 37 °C. Then, a microplate reader (Synergy H4 Hybrid Reader, BioTek) was used to measure the absorbance of the solvent at 450 nm. The background of drug and culture medium has been deducted in each well. The relative cell proliferation of each treatment group was expressed as the percentage change relative to the […] control group. Each data point is the mean ± s.d. of two or three independent experiments.
# SW480 = assay: Cell proliferation, CCK-8; format: cell-based; details: Homo sapiens; SW480, CCK8, 48 h
# Experimental: as §2
# NCI-H508 = assay: Cell proliferation, CCK-8; format: cell-based; details: Homo sapiens; NCI-H508, CCK8, 48 h
# Experimental: as §2
# SKCO1 = assay: Cell proliferation, CCK-8; format: cell-based; details: Homo sapiens, SK-CO-1; SKCO1, CCK8, 48 h
# Experimental: as §2
# LS174T = assay: Cell proliferation, CCK-8; format: cell-based; details: Homo sapiens, CCK8, 48 h
# Experimental: as §2
# HT29 = assay: Cell proliferation, CCK-8; format: cell-based; details: Homo sapiens, HT-29; HT29, CCK8, 48 h
# Experimental: as §2
# T1 sequence (Q8N6T7 whole entry): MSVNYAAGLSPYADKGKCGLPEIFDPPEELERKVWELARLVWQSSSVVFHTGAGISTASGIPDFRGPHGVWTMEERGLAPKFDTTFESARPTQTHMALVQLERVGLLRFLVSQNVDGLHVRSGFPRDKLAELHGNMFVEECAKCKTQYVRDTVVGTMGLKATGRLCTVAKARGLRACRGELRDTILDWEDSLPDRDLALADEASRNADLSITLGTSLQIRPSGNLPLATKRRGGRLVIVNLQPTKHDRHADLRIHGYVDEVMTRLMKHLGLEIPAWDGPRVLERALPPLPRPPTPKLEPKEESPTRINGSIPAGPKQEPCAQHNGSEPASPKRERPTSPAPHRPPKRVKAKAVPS
smiles,measurement,setting,value
Cc1cc(F)c(Br)cc1NS(=O)(=O)c1ccc(NS(=O)(=O)c2cc(Cl)cc(Cl)c2)cc1CN1CCOC[C@H]1C [MDL-811],"tumor growth, cotreatment",HCT116 xenograft tumors [1],dramatically enhanced tumor growth regression
same,tumor growth,[2],strong tumor regression in both PDX models
same,effect on SIRT6 deacylation,SIRT6 [3],no apparent effect
same,tumor growth,HCT116 xenograft tumors [4],strongly suppressed tumor growth in a dose-dependent manner
same,"deacetylation of H3K9Ac, H3K18Ac, and H3K56Ac",SIRT6 [5],"significantly enhanced the deacetylation of SIRT6 (H3K9Ac, H3K18Ac, and H3K56Ac)"
same,"1,25(OH)2D3-enhanced CYP24A1 transcription, cotreatment","CYP24A1; HCT116 and HT29 cells, MDL-811 (5 µM) plus 1,25(OH)2D3 (5 µM), 48 h",effectively abolished
same,CYP24A1 mRNA expression levels,"CYP24A1; HCT116 cells, 10 µM MDL-811, 48 h",markedly decreased CYP24A1 mRNA expression levels
same,IC50,LOVO,7.8 ± 0.2 µM
same,IC50,SW480,9.3 ± 1.7 µM
same,IC50,NCI-H508,9.7 ± 1.2 µM
same,IC50,SKCO1,12.1 ± 0.1 µM
same,IC50,LS174T,23.8 ± 2 µM
same,IC50,HT29,7 ± 1.1 µM
